The target of this experiment is T1, human GC-A (Homo sapiens, UniProt P16066).
T1 construct: expressed in transfected cells; host or cells: CHO cells
T1 sequence (P16066 33-1061): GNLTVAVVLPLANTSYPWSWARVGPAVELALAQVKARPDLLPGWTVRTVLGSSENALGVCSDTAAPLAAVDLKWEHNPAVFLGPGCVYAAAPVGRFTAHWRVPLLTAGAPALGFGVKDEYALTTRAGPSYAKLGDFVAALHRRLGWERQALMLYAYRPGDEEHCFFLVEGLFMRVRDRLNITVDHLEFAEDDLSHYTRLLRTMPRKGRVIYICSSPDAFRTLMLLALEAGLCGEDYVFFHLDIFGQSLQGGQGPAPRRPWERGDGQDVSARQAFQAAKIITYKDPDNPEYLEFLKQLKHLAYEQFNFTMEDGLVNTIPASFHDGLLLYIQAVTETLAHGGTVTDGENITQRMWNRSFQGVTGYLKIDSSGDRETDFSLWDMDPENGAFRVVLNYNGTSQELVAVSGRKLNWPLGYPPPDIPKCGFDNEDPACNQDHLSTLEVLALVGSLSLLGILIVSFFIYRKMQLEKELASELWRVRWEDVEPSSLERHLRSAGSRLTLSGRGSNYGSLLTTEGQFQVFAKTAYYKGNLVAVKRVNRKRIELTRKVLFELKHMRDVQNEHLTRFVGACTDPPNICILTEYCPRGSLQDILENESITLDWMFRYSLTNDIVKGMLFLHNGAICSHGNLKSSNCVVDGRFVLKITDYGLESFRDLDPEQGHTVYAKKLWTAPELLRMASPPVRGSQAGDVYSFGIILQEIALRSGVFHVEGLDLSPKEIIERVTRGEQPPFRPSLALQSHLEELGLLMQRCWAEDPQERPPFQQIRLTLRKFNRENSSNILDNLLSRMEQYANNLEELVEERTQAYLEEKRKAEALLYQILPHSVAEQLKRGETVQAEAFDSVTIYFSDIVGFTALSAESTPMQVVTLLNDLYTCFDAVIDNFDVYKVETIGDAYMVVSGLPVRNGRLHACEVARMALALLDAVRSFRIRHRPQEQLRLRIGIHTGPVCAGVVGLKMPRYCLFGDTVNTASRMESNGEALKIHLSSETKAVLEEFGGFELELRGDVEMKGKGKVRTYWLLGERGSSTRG
Briefly: cGMP elevating activity in CHO/human GC-A cells (Test Example 1). Type of experiment: cell-based. The procedure: The cGMP elevating activity of each modified peptide prepared in Example 2 was measured by the following method:
CHO/human GC-A cells, which are CHO cells constitutively expressing human GC-A, were suspended at 2×10^5 cells/ml in α-MEM, 10% FBS, and 1% penicillin-streptomycin, inoculated at 20 μl/well (4×10^3 cells/well) onto a 384-well plate (Corning, 3826), and cultured overnight in a CO2 incubator. On the next day, the medium was removed from this plate, and then, 1.6 mM IBMX/KRB buffer was added thereto at 10 μl/well. The mixture was stirred on a plate shaker and then incubated at room temperature for 10 minutes. […] The mixture was stirred on a plate shaker and then incubated for 15 minutes in a CO2 incubator. Thereafter, a lysis buffer (50 mM phosphate buffer, pH 7.0, and 1% Triton X-100) was added thereto at 5 μl/well. The cells were lysed by stirring for 10 minutes on a plate shaker. Subsequently, the cGMP levels in the cell lysates were measured by use of a cGMP kit (manufactured by Cisbio Bioassays). Specifically, to a 384-well plate (Greiner, 784076), 5 μl/well of a diluent attached to the kit, 5 μl/well of the cell lysate, 5 μl/well of cGMP-d2, and 5 μl/well of anti cGMP-Cryptate were added. The mixture was stirred on a plate shaker and then incubated overnight at 4° C. in the dark, followed by the measurement of homogeneous time-resolved fluorescence using RubyStar (manufactured by BMG LABTECH JAPAN Ltd.). The activity value (T/C) of the test substance at each concentration was calculated when the activity value of a well supplemented with only a solvent was defined as 0 and the activity value of a well supplemented with 1 nM ANP was defined as 1.

Data on 4 compounds can be found in patent US10947289B2, “Glyco-modified atrial natriuretic peptide” (priority 2013, dated 2021).

*1 amine or outer side, *2 acyl side, *3 side chain or, on linkers, in order; H or OH if unused. Where a SMILES comes first, the peptide text is derived from it. Bridges are numbered along the chain shown (N, C = ends). [ ]: non-standard residue; d: D form. X2 = CC(=O)N[C@H]1[C@H](O[C@H]2[C@H](O)[C@@H](NC(C)=O)[C@H](OC[C@H](N[*:1])C(=O)[*:2])O[C@@H]2CO)O[C@H](CO)[C@@H](O[C@@H]2O[C@H](CO[C@H]3O[C@H](CO)[C@@H](O)[C@H](O)[C@@H]3O[C@@H]3O[C@H](CO)[C@@H](O[C@@H]4O[C@H](CO[C@]5(C(=O)O)C[C@H](O)[C@@H](NC(C)=O)[C@H]([C@H](O)[C@H](O)CO)O5)[C@H](O)[C@H](O)[C@H]4O)[C@H](O)[C@H]3NC(C)=O)[C@@H](O)[C@H](O[C@H]3O[C@H](CO)[C@@H](O)[C@H](O)[C@@H]3O[C@@H]3O[C@H](CO)[C@@H](O[C@@H]4O[C@H](CO[C@]5(C(=O)O)C[C@H](O)[C@@H](NC(C)=O)[C@H]([C@H](O)[C@H](O)CO)O5)[C@H](O)[C@H](O)[C@H]4O)[C@H](O)[C@H]3NC(C)=O)[C@@H]2O)[C@@H]1O

In turn, `CC[C@H](C)[C@@H]1NC(=O)[C@H](CCCNC(=N)N)NC(=O)[C@H](CC(=O)O)NC(=O)[C@H](CCSC)NC(=O)[C@H](CCCNC(=N)N)NC(=O)CNC(=O)CNC(=O)[C@H](Cc2ccccc2)NC(=O)[C@@H](NC(=O)[C@H](CO)NC(=O)[C@H](CO)NC(=O)[C@H](CCCNC(=N)N)NC(=O)[C@H](CCCNC(=N)N)NC(=O)[C@H](CC(C)C)NC(=O)[C@@H](N)CC(=O)N[C@@H]2O[C@H](CO)[C@@H](O[C@@H]3O[C@H](CO)[C@@H](O[C@@H]4O[C@H](CO[C@H]5O[C@H](CO)[C@@H](O)[C@H](O)[C@@H]5O[C@@H]5O[C@H](CO)[C@@H](O[C@@H]6O[C@H](CO[C@]7(C(=O)O)C[C@H](O)[C@@H](NC(C)=O)[C@H]([C@H](O)[C@H](O)CO)O7)[C@H](O)[C@H](O)[C@H]6O)[C@H](O)[C@H]5NC(C)=O)[C@@H](O)[C@H](O[C@H]5O[C@H](CO)[C@@H](O)[C@H](O)[C@@H]5O[C@@H]5O[C@H](CO)[C@@H](O[C@@H]6O[C@H](CO[C@]7(C(=O)O)C[C@H](O)[C@@H](NC(C)=O)[C@H]([C@H](O)[C@H](O)CO)O7)[C@H](O)[C@H](O)[C@H]6O)[C@H](O)[C@H]5NC(C)=O)[C@@H]4O)[C@H](O)[C@H]3NC(C)=O)[C@H](O)[C@H]2NC(C)=O)CSSC[C@@H](C(=O)N[C@@H](CC(N)=O)C(=O)N[C@@H](CO)C(=O)N[C@@H](Cc2ccccc2)C(=O)N[C@@H](CCCNC(=N)N)C(=O)N[C@@H](Cc2ccc(O)cc2)C(=O)O)NC(=O)CNC(=O)[C@H](CC(C)C)NC(=O)CNC(=O)[C@H](CO)NC(=O)[C@H](CCC(N)=O)NC(=O)[C@H](C)NC(=O)CNC1=O` [Compound 2-4, (SG-)Asn-hANP(2-28)] had a half-maximal effective concentration (EC50) of 0.08 nM.

`CC[C@H](C)[C@@H]1NC(=O)[C@H](CCCNC(=N)N)NC(=O)[C@H](CC(=O)O)NC(=O)[C@H](CCSC)NC(=O)[C@H](CCCNC(=N)N)NC(=O)CNC(=O)CNC(=O)[C@H](Cc2ccccc2)NC(=O)[C@@H](NC(=O)[C@H](CO)NC(=O)[C@H](CO)NC(=O)[C@H](CCCNC(=N)N)NC(=O)[C@H](CCCNC(=N)N)NC(=O)[C@H](CC(C)C)NC(=O)[C@@H](N)CO[C@@H]2O[C@H](CO)[C@@H](O[C@@H]3O[C@H](CO)[C@@H](O[C@@H]4O[C@H](CO[C@H]5O[C@H](CO)[C@@H](O)[C@H](O)[C@@H]5O[C@@H]5O[C@H](CO)[C@@H](O[C@@H]6O[C@H](CO[C@]7(C(=O)O)C[C@H](O)[C@@H](NC(C)=O)[C@H]([C@H](O)[C@H](O)CO)O7)[C@H](O)[C@H](O)[C@H]6O)[C@H](O)[C@H]5NC(C)=O)[C@@H](O)[C@H](O[C@H]5O[C@H](CO)[C@@H](O)[C@H](O)[C@@H]5O[C@@H]5O[C@H](CO)[C@@H](O[C@@H]6O[C@H](CO[C@]7(C(=O)O)C[C@H](O)[C@@H](NC(C)=O)[C@H]([C@H](O)[C@H](O)CO)O7)[C@H](O)[C@H](O)[C@H]6O)[C@H](O)[C@H]5NC(C)=O)[C@@H]4O)[C@H](O)[C@H]3NC(C)=O)[C@H](O)[C@H]2NC(C)=O)CSSC[C@@H](C(=O)N[C@@H](CC(N)=O)C(=O)N[C@@H](CO)C(=O)N[C@@H](Cc2ccccc2)C(=O)N[C@@H](CCCNC(=N)N)C(=O)N[C@@H](Cc2ccc(O)cc2)C(=O)O)NC(=O)CNC(=O)[C@H](CC(C)C)NC(=O)CNC(=O)[C@H](CO)NC(=O)[C@H](CCC(N)=O)NC(=O)[C@H](C)NC(=O)CNC1=O` [Compound 2-5, (SG-)Ser-hANP(2-28)] (H-[X2]LRRSSCFGGRMDRIGAQSGLGCNSFRY-OH; disulfide 7-23) gave a concentration giving a half-maximal response (EC50) of 0.082 nM.

In turn, `CC[C@H](C)[C@@H]1NC(=O)[C@H](CCCNC(=N)N)NC(=O)[C@H](CC(=O)O)NC(=O)[C@H](CCSC)NC(=O)[C@H](CCCNC(=N)N)NC(=O)CNC(=O)CNC(=O)[C@H](Cc2ccccc2)NC(=O)[C@@H](NC(=O)[C@H](CO)NC(=O)[C@H](CO)NC(=O)[C@H](CCCNC(=N)N)NC(=O)[C@H](CCCNC(=N)N)NC(=O)[C@H](CC(C)C)NC(=O)[C@H](CO)NC(=O)CCOCCOCCOCCOCCNC(=O)[C@H](CC(=O)N[C@@H]2O[C@H](CO)[C@@H](O[C@@H]3O[C@H](CO)[C@@H](O[C@@H]4O[C@H](CO[C@H]5O[C@H](CO)[C@@H](O)[C@H](O)[C@@H]5O[C@@H]5O[C@H](CO)[C@@H](O[C@@H]6O[C@H](CO)[C@H](O)[C@H](O)[C@H]6O)[C@H](O)[C@H]5NC(C)=O)[C@@H](O)[C@H](O[C@H]5O[C@H](CO)[C@@H](O)[C@H](O)[C@@H]5O[C@@H]5O[C@H](CO)[C@@H](O[C@@H]6O[C@H](CO)[C@H](O)[C@H](O)[C@H]6O)[C@H](O)[C@H]5NC(C)=O)[C@@H]4O)[C@H](O)[C@H]3NC(C)=O)[C@H](O)[C@H]2NC(C)=O)NC(=O)CO[C@@H]2O[C@H](CO)[C@@H](O[C@@H]3O[C@H](CO)[C@@H](O[C@@H]4O[C@H](CO[C@H]5O[C@H](CO)[C@@H](O)[C@H](O)[C@@H]5O[C@@H]5O[C@H](CO)[C@@H](O[C@@H]6O[C@H](CO)[C@H](O)[C@H](O)[C@H]6O)[C@H](O)[C@H]5NC(C)=O)[C@@H](O)[C@H](O[C@H]5O[C@H](CO)[C@@H](O)[C@H](O)[C@@H]5O[C@@H]5O[C@H](CO)[C@@H](O[C@@H]6O[C@H](CO)[C@H](O)[C@H](O)[C@H]6O)[C@H](O)[C@H]5NC(C)=O)[C@@H]4O)[C@H](O)[C@H]3NC(C)=O)[C@H](O)[C@H]2NC(C)=O)CSSC[C@@H](C(=O)N[C@@H](CC(N)=O)C(=O)N[C@@H](CO)C(=O)N[C@@H](Cc2ccccc2)C(=O)N[C@@H](CCCNC(=N)N)C(=O)N[C@@H](Cc2ccc(O)cc2)C(=O)O)NC(=O)CNC(=O)[C@H](CC(C)C)NC(=O)CNC(=O)[C@H](CO)NC(=O)[C@H](CCC(N)=O)NC(=O)[C@H](C)NC(=O)CNC1=O` [Compound 2-21, AG(9)-(AG(9)-)Asn-PEG(3)-hANP(1-28)] gave an EC50 of 0.097 nM.

`CC[C@H](C)[C@@H]1NC(=O)[C@H](CCCNC(=N)N)NC(=O)[C@H](CC(=O)O)NC(=O)[C@H](CCSC)NC(=O)[C@H](CCCNC(=N)N)NC(=O)CNC(=O)CNC(=O)[C@H](Cc2ccccc2)NC(=O)[C@@H](NC(=O)[C@H](CO)NC(=O)[C@H](CO)NC(=O)[C@H](CCCNC(=N)N)NC(=O)[C@H](CCCNC(=N)N)NC(=O)[C@H](CC(C)C)NC(=O)[C@H](CO)NC(=O)CCOCCOCCOCCOCCNC(=O)[C@H](CC(=O)N[C@@H]2O[C@H](CO)[C@@H](O[C@@H]3O[C@H](CO)[C@@H](O[C@@H]4O[C@H](CO[C@H]5O[C@H](CO)[C@@H](O)[C@H](O)[C@@H]5O[C@@H]5O[C@H](CO)[C@@H](O)[C@H](O)[C@H]5NC(C)=O)[C@@H](O)[C@H](O[C@H]5O[C@H](CO)[C@@H](O)[C@H](O)[C@@H]5O[C@@H]5O[C@H](CO)[C@@H](O)[C@H](O)[C@H]5NC(C)=O)[C@@H]4O)[C@H](O)[C@H]3NC(C)=O)[C@H](O)[C@H]2NC(C)=O)NC(=O)CO[C@@H]2O[C@H](CO)[C@@H](O[C@@H]3O[C@H](CO)[C@@H](O[C@@H]4O[C@H](CO[C@H]5O[C@H](CO)[C@@H](O)[C@H](O)[C@@H]5O[C@@H]5O[C@H](CO)[C@@H](O)[C@H](O)[C@H]5NC(C)=O)[C@@H](O)[C@H](O[C@H]5O[C@H](CO)[C@@H](O)[C@H](O)[C@@H]5O[C@@H]5O[C@H](CO)[C@@H](O)[C@H](O)[C@H]5NC(C)=O)[C@@H]4O)[C@H](O)[C@H]3NC(C)=O)[C@H](O)[C@H]2NC(C)=O)CSSC[C@@H](C(=O)N[C@@H](CC(N)=O)C(=O)N[C@@H](CO)C(=O)N[C@@H](Cc2ccccc2)C(=O)N[C@@H](CCCNC(=N)N)C(=O)N[C@@H](Cc2ccc(O)cc2)C(=O)O)NC(=O)CNC(=O)[C@H](CC(C)C)NC(=O)CNC(=O)[C@H](CO)NC(=O)[C@H](CCC(N)=O)NC(=O)[C@H](C)NC(=O)CNC1=O` [Compound 2-22, AG(7)-(AG(7)-)Asn-PEG(3)-hANP(1-28)] came in with an EC50 of 0.08 nM.

Usually EC50 stands for the concentration at which the effect is half-maximal.
